Our source for the EC50 values is patent US9580409B2, “Modulators of opioid receptors and methods of use thereof” (priority 2011, dated 2017).

For test [1], the target named is T1, mu-opioid receptor (Homo sapiens, UniProt P35372). The test can be described thus: cell-based. As to conditions: read-out: BArr Activity.
Target sequence in this assay (P35372 whole entry, species assumed): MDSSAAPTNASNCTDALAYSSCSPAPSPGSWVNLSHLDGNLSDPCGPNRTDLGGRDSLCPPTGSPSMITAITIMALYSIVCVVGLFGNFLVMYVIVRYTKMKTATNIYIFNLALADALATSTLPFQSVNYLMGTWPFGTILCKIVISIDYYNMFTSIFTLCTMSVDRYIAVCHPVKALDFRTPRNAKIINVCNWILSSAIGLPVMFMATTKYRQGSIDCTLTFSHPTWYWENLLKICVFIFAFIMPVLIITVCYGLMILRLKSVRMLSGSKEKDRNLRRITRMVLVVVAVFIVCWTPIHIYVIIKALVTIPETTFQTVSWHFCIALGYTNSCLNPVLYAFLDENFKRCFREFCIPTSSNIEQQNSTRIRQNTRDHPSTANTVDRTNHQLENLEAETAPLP
Target sequence in this assay (P32121 whole entry partner, species assumed): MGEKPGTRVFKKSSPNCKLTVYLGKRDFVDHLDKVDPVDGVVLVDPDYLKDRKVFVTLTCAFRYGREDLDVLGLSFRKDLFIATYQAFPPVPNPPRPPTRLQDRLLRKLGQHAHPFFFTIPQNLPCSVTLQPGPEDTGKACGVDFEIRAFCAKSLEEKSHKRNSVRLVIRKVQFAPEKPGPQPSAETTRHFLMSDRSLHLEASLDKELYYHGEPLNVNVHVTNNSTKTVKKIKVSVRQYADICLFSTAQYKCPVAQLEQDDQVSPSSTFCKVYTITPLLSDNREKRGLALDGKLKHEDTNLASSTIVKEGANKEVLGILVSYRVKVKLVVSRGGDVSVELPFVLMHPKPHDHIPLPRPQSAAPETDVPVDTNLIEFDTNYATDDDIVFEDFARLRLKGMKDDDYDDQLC
Test [2] has as its target T1, mu-opioid receptor. Nature of the test: biochemical. The following applies: read-out: GTP Activity.
Target sequence in this assay (P35372 whole entry, species assumed): as the sequence (P35372 whole entry, species assumed) above
The mark [3] stands for this setting: […], class symbol combines EC50 and efficacy.

Structures are written as SMILES.

For the molecule `CNC1=C(c2nc3ccccc3[nH]2)C(=O)C2(CCC2)N1c1cc(OC)cc(OC)c1` [compound 109], the EC50 at mu-opioid receptor [1] (class symbols) is less than 10 µM; on mu-opioid receptor [2] (class symbols) it was less than 100 nM.

As to `CNC1=C(c2nc3ccccc3[nH]2)C(=O)C(C)N1c1cc(OC)cc(OC)c1` (centres unmarked) [compound 121], the EC50 at mu-opioid receptor [1] (class symbols) is less than 10 µM; on mu-opioid receptor [2] (class symbols), less than 100 nM.

For the molecule `CNC1=C(c2nc3ccccc3[nH]2)C(=O)[C@@H](C)N1c1cc(OC)cc(OC)c1` [compound 136], the EC50 at mu-opioid receptor [1] (class symbols) was less than 10 µM; on mu-opioid receptor [2] (class symbols), less than 100 nM.

For the molecule `CNC1=C(c2nc3ccccc3[nH]2)C(=O)[C@H](C)N1c1cc(OC)cc(OC)c1` [compound 137], the EC50 at mu-opioid receptor [1] (class symbols) is less than 10 µM; at mu-opioid receptor [2] (class symbols) it was 100 to 1000 nM.

On to `CCC1C(=O)C(c2nc3ccccc3[nH]2)=C(NC)N1c1cc(OC)cc(OC)c1` (centres unmarked) [compound 153], for which the EC50 at mu-opioid receptor [1] (class symbols) is less than 10 µM; on mu-opioid receptor [2] (class symbols), less than 100 nM.

Regarding `CCNC1=C(c2nc3ccccc3[nH]2)C(=O)C(CC)N1c1cc(OC)cc(OC)c1` (centres unmarked) [compound 154], the results for the EC50 on mu-opioid receptor [1] (class symbols) and at mu-opioid receptor [2] (class symbols) were less than 10 µM and 100 to 1000 nM, respectively.

On to `COc1cc(OC)cc(N2C(N)=C(c3nc4ccccc4[nH]3)C(=O)C23CCCC3)c1` [compound 180], for which the EC50 on mu-opioid receptor [1] (class symbols) is less than 10 µM; on mu-opioid receptor [2] (class symbols), 100 to 1000 nM.

In the case of `COc1cc(OC)cc(N2C(N)=C(c3nc4ccccc4[nH]3)C(=O)C23CCOC3)c1` (centres unmarked) [compound 181], the EC50 on mu-opioid receptor [1] (class symbols) is less than 10 µM; at mu-opioid receptor [2] (class symbols) it was 100 to 1000 nM.

With `CC[C@H]1C(=O)C(c2nc3ccccc3[nH]2)=C(NC)N1c1cc(OC)cc(OC)c1` [compound 185], the EC50 at mu-opioid receptor [1] (class symbols) is less than 10 µM; on mu-opioid receptor [2] (class symbols), less than 100 nM.

For `CCNC1=C(c2nc3ccccc3[nH]2)C(=O)[C@H](CC)N1c1cc(OC)cc(OC)c1` [compound 187], the figures for the EC50 on mu-opioid receptor [1] (class symbols) and on mu-opioid receptor [2] (class symbols) were less than 10 µM and less than 100 nM, respectively.

Take `CNC1=C(c2nc3ccccc3[nH]2)C(=O)C2(CCCC2)N1c1cc(OC)cc(OC)c1` [compound 188]: the EC50 at mu-opioid receptor [1] (class symbols) is less than 10 µM; at mu-opioid receptor [2] (class symbols), less than 100 nM.

For the molecule `COc1cc(OC)cc(N2C(N)=C(c3nc4ccccc4[nH]3)C(=O)C2CCO)c1` (centres unmarked) [compound 203], the EC50 at mu-opioid receptor [1] (setting [3]) is less than 10 µM; at mu-opioid receptor [2] (setting [3]), less than 100 nM.

For the molecule `CNC1=C(c2nc3ccccc3[nH]2)C(=O)C2(CCOC2)N1c1cc(OC)cc(OC)c1` (centres unmarked) [compound 208], the EC50 on mu-opioid receptor [1] (setting [3]) was less than 10 µM; on mu-opioid receptor [2] (setting [3]), less than 100 nM.

Turning to `CNC1=C(c2nc3ccccc3[nH]2)C(=O)[C@]2(CCOC2)N1c1cc(OC)cc(OC)c1` [compound 213], the EC50 is less than 10 µM on mu-opioid receptor [1] (setting [3]) and less than 100 nM on mu-opioid receptor [2] (setting [3]).

Consider `CNC1=C(c2nc3ccccc3[nH]2)C(=O)[C@@]2(CCOC2)N1c1cc(OC)cc(OC)c1` [compound 214], for which the results for the EC50 at mu-opioid receptor [1] (setting [3]) and at mu-opioid receptor [2] (setting [3]) were less than 10 µM and less than 100 nM, respectively.

As to `CNC1=C(c2nc3ccccc3[nH]2)C(=O)C(CCO)N1c1cc(OC)cc(OC)c1` (centres unmarked) [compound 215], the figures for the EC50 at mu-opioid receptor [1] (setting [3]) and on mu-opioid receptor [2] (setting [3]) were less than 10 µM and less than 100 nM, respectively.

As to `CNC1=C(c2nc3ccccc3[nH]2)C(=O)C(CCOC)N1c1cc(OC)cc(OC)c1` (centres unmarked) [compound 218], the EC50 at mu-opioid receptor [1] (setting [3]) was less than 10 µM; on mu-opioid receptor [2] (setting [3]) it was less than 100 nM.

Consider `COc1cc(OC)cc(N2C(N)=C(c3nc4ccccc4[nH]3)C(=O)C2CCNC(C)=O)c1` (centres unmarked) [compound 233], for which the EC50 on mu-opioid receptor [1] (setting [3]) is less than 10 µM; on mu-opioid receptor [2] (setting [3]) it was less than 100 nM.

`CCC(=O)NCCC1C(=O)C(c2nc3ccccc3[nH]2)=C(N)N1c1cc(OC)cc(OC)c1` (centres unmarked) [compound 235]: the EC50 was less than 10 µM on mu-opioid receptor [1] (setting [3]) and less than 100 nM at mu-opioid receptor [2] (setting [3]).

With `COc1cc(OC)cc(N2C(N)=C(c3nc4ccccc4[nH]3)C(=O)C2CCNC(=O)c2ccccc2)c1` (centres unmarked) [compound 236], the EC50 was less than 10 µM on mu-opioid receptor [1] (setting [3]) and less than 100 nM on mu-opioid receptor [2] (setting [3]).

Take `COc1cc(OC)cc(N2C(N)=C(c3nc4ccccc4[nH]3)C(=O)[C@@H]2CCO)c1` [compound 242]: the EC50 on mu-opioid receptor [1] (setting [3]) was less than 10 µM; at mu-opioid receptor [2] (setting [3]), less than 100 nM.

As to `CNC1=C(c2nc3ccccc3[nH]2)C(=O)C(CCNC(C)=O)N1c1cc(OC)cc(OC)c1` (centres unmarked) [compound 254], the EC50 on mu-opioid receptor [1] (setting [3]) is less than 10 µM; on mu-opioid receptor [2] (setting [3]), less than 100 nM.

As to `CNC1=C(c2nc3ccccc3[nH]2)C(=O)C(CCNC(=O)c2ccccc2)N1c1cc(OC)cc(OC)c1` (centres unmarked) [compound 255], the EC50 on mu-opioid receptor [1] (setting [3]) is less than 10 µM; on mu-opioid receptor [2] (setting [3]), less than 100 nM.

`CNC1=C(c2nc3ccccc3[nH]2)C(=O)C2(CCCOC2)N1c1cc(OC)cc(OC)c1` (centres unmarked) [compound 272]: the EC50 was less than 10 µM on mu-opioid receptor [1] (setting [3]) and less than 100 nM on mu-opioid receptor [2] (setting [3]).

Regarding `CNC1=C(c2nc3ccccc3[nH]2)C(=O)C(C)(CNC(C)=O)N1c1cc(OC)cc(OC)c1` (centres unmarked) [compound 281], the EC50 is less than 10 µM at mu-opioid receptor [1] (setting [3]) and less than 100 nM at mu-opioid receptor [2] (setting [3]).

Consider `CCC(=O)NCC1(C)C(=O)C(c2nc3ccccc3[nH]2)=C(NC)N1c1cc(OC)cc(OC)c1` (centres unmarked) [compound 282], for which the EC50 is less than 10 µM at mu-opioid receptor [1] (setting [3]) and less than 100 nM on mu-opioid receptor [2] (setting [3]).

As to `CCC(=O)NCCC1(C)C(=O)C(c2nc3ccccc3[nH]2)=C(NC)N1c1cc(OC)cc(OC)c1` (centres unmarked) [compound 285], the EC50 was less than 10 µM on mu-opioid receptor [1] (setting [3]) and less than 100 nM on mu-opioid receptor [2] (setting [3]).

Turning to `CNC1=C(c2nc3ccccc3[nH]2)C(=O)C(CNC(C)=O)N1c1cc(OC)cc(OC)c1` (centres unmarked) [compound 287], the results for the EC50 at mu-opioid receptor [1] (setting [3]) and at mu-opioid receptor [2] (setting [3]) were less than 10 µM and less than 100 nM, respectively.

Turning to `CCC(=O)NCC1C(=O)C(c2nc3ccccc3[nH]2)=C(NC)N1c1cc(OC)cc(OC)c1` (centres unmarked) [compound 288], the EC50 is less than 10 µM on mu-opioid receptor [1] (setting [3]) and less than 100 nM on mu-opioid receptor [2] (setting [3]).

In the case of `CNC1=C(c2nc3ccccc3[nH]2)C(=O)[C@](C)(CCNC(C)=O)N1c1cc(OC)cc(OC)c1` [compound 303], the figures for the EC50 on mu-opioid receptor [1] (setting [3]) and on mu-opioid receptor [2] (setting [3]) were less than 10 µM and less than 100 nM, respectively.

Regarding `CNC1=C(c2nc3ccccc3[nH]2)C(=O)[C@]2(CCCOC2)N1c1cc(OC)cc(OC)c1` [compound 305], the EC50 is less than 10 µM at mu-opioid receptor [1] (setting [3]) and less than 100 nM at mu-opioid receptor [2] (setting [3]).

Consider `CNC1=C(c2nc3ccccc3[nH]2)C(=O)[C@](C)(CNC(C)=O)N1c1cc(OC)cc(OC)c1` [compound 307], for which the EC50 at mu-opioid receptor [1] (setting [3]) is less than 10 µM; at mu-opioid receptor [2] (setting [3]) it was 100 to 1000 nM.

On to `CNC1=C(c2nc3ccccc3[nH]2)C(=O)[C@@](C)(CNC(C)=O)N1c1cc(OC)cc(OC)c1` [compound 308], for which the figures for the EC50 on mu-opioid receptor [1] (setting [3]) and at mu-opioid receptor [2] (setting [3]) were less than 10 µM and less than 100 nM, respectively.

Regarding `CNC1=C(c2nc3ccccc3[nH]2)C(=O)C(CC(C)O)N1c1cc(OC)cc(OC)c1` (centres unmarked) [compound 310], the EC50 at mu-opioid receptor [1] (setting [3]) is less than 10 µM; on mu-opioid receptor [2] (setting [3]), less than 100 nM.
